Measurements reported in article PMC8795738, “The Tarantula Venom Peptide Eo1a Binds to the Domain II S3-S4 Extracellular Loop of Voltage-Gated Sodium Channel NaV1.8 to Enhance Activation” (Frontiers in Pharmacology, 2022).
Where a SMILES comes first, the peptide text is derived from it. Bridges are numbered along the chain shown (N, C = ends).

Key:
NaV1.5 = experiment: I-V protocol, whole-cell patch-clamp, NaV1.5; type: cell-based, human; settings: Eo1a 10 μM
Protocol: (§1) Human Embryonic Kidney (HEK) 293 cells stably expressing human NaV1.1 to NaV1.7/β1 (SB Drug Discovery, Glasgow, United Kingdom), Chinese Hamster Ovary (CHO) cells stably expressing human NaV1.8/β3 in a tetracycline-inducible system (ChanTest, Cleveland, OH, United States), and HEK293 cells stably expressing rat transient receptor potential vanilloid 1 (TRPV1) were cultured as previously described ([Yin et al., 2020]). Human KV2.1 and NaV1.7 mutants were transiently transfected into HEK293 cells stably expressing β1/β2 using Lipofectamine 2000 (Thermo Fisher Scientific, Scoresby, VIC, Australia) and used for patch-clamp experiments 48 h after transfection. Cells were grown in an incubator at 37°C with 5% CO2 and passaged every 3–4 d (at 70–80% confluency) using TrypLE Express (Thermo Fisher Scientific).
(§2) Automated whole-cell patch-clamp recordings were performed with a QPatch-16 automated electrophysiology platform (Sophion Bioscience, Ballerup, Denmark) using single-hole (QPlate 16 with a standard resistance of 2 ± 0.4 MΩ) or multi-hole (QPlate 16X with a standard resistance 0.2 ± 0.04 MΩ, NaV1.8 only) as previously described ([McMahon et al., 2020]).
(§3) The extracellular solution (ECS) consisted of (in mM) 145 NaCl (replaced with 70 choline chloride for NaV1.4, NaV1.5 and NaV1.7), 4 KCl, 2 CaCl2, 1 MgCl2, 10 HEPES, and 10 glucose, pH to 7.4 with NaOH (adjusted to 305 mOsm/L with sucrose). For NaV recordings the intracellular solution (ICS) consisted of (in mM) 140 CsF, 1 EGTA, 5 CsOH, 10 HEPES, and 10 NaCl, pH to 7.3 with CsOH (adjusted to 320 mOsm/L with sucrose). For KV2.1 recordings the ICS consisted of (in mM) 50 KCl, 60 KF, 10 EGTA, 10 HEPES, 10 NaCl pH to 7.3 with KOH (adjusted to 320 mOsm/L with sucrose). TTX (1 μM) was added to the ECS for NaV1.8 recordings to inhibit background endogenous TTX sensitive current in CHO cells.
(§4) I-V curves were obtained with a holding potential of −90 mV followed by a series of 500 ms step pulses that ranged from −110 to +80 mV in 5-mV increments (repetition interval 5 s) before and after 5 min incubation with Eo1a (10 μM). Conductance-voltage (G-V) curves were obtained by calculating the conductance (G) at each voltage (V) using equation G = I/(V − V rev ), where V rev is the reversal potential. G-V curves were fitted with a Boltzmann equation. […]
(§5) The time constant of fast inactivation (τ) was computed by fitting the current decay traces with a single exponential function using QPatch Assay Software 5.6 (Sophion). The time to peak was calculated from pulse onset to peak inward current using QPatch Assay Software 5.6 (Sophion).

NaV1.6 = experiment: I-V protocol, whole-cell patch-clamp, NaV1.6; type: cell-based, human; settings: Eo1a 10 μM
Protocol: as §1, §2
The extracellular solution (ECS) consisted of (in mM) 145 NaCl (replaced with 70 choline chloride for NaV1.4, NaV1.5 and NaV1.7), 4 KCl, 2 CaCl2, 1 MgCl2, 10 HEPES, and 10 glucose, pH to 7.4 with NaOH (adjusted to 305 mOsm/L with sucrose). For NaV recordings the intracellular solution (ICS) consisted of (in mM) 140 CsF, 1 EGTA, 5 CsOH, 10 HEPES, and 10 NaCl, pH to 7.3 with CsOH (adjusted to 320 mOsm/L with sucrose). For KV2.1 recordings the ICS consisted of (in mM) 50 KCl, 60 KF, 10 EGTA, 10 HEPES, 10 NaCl pH to 7.3 with KOH (adjusted to 320 mOsm/L with sucrose). […]
as §5

NaV1.7 = experiment: I-V protocol, whole-cell patch-clamp, NaV1.7; type: cell-based, human; settings: Eo1a 10 μM
Protocol: as §1, §2, §3, §4, §5

NaV1.8 = NaV1.8 (Homo sapiens, UniProt Q9Y5Y9); experiment: I-V protocol, whole-cell patch-clamp, NaV1.8; type: cell-based; settings: Eo1a 10 μM
Protocol: as §1, §2, §3
I-V curves were obtained with a holding potential of −90 mV followed by a series of 500 ms step pulses that ranged from −110 to +80 mV in 5-mV increments (repetition interval 5 s) before and after 5 min incubation with Eo1a (10 μM). Conductance-voltage (G-V) curves were obtained by calculating the conductance (G) at each voltage (V) using equation G = I/(V − V rev ), where V rev is the reversal potential. G-V curves were fitted with a Boltzmann equation. The voltage dependence of steady-state fast inactivation was examined using a 10-ms pulse of −20 mV (+10 mV for NaV1.8) immediately after the 500-ms step above to assess the available non-inactivated channels.
as §5

DRG neurons = experiment: Calcium imaging of dorsal root ganglion (DRG) neurons; type: cell-based, mouse
Source text: Adult male C57BL/6J mice aged 4–8 weeks were sourced from the Animal Resource Centre (Canning Vale, Western Australia). Adult male NaV1.8 knockouts ([Nassar et al., 2004]) (aged 8–11 weeks) and wild-type littermates were housed and tested at University College London. Animals were housed in groups of three or four per cage under 12-h light-dark cycles and were provided with standard rodent chow and water ad libitum. Ethical approval for experiments involving animals was obtained from The University of Queensland animal ethics committee (TRI/IMB/093/17, IMB/PACE/421/18) and the United Kingdom Home Office (project licence PPL 70/7382). All experiments were conducted in accordance with the International Association for the Study of Pain Guidelines for the Use of Animals in Research and the Australian Code of Practice for the Care and Use of Animals for Scientific Purposes, 8th edition (2013).
For Ca^2+ imaging experiments, DRG neurons were isolated from 4 week old male C57BL/6J mice as previously described ([Robinson et al., 2018]). DRG neurons were dissociated and plated in 96-well poly-D-lysine-coated culture plates grown in Dulbecco’s modified Eagle’s medium supplemented with 10% fetal bovine serum (FBS) and penicillin/streptomycin and cultured for 24 h at 37°C with 5% CO2. Dissociated DRG neurons were loaded with Fluo-4 AM calcium indicator (5 μM) for 1 h, then washed with Hanks’ balanced salt solution (HBSS) containing 20 mM HEPES. Fluorescence was measured using a Nikon Ti-E Deconvolution inverted microscope, in conjunction with a Lumencor Spectra LED light source (excitation, 485 nm; emission, 521 nm). Images were acquired at 1 frame per s using a 20× objective. […] Only excitable cells responding to KCl were included for analysis. Cells were classified as responders if they had at least a 1.5-fold increase in fluorescence over baseline.

Sequence of NaV1.8 (Q9Y5Y9 whole entry): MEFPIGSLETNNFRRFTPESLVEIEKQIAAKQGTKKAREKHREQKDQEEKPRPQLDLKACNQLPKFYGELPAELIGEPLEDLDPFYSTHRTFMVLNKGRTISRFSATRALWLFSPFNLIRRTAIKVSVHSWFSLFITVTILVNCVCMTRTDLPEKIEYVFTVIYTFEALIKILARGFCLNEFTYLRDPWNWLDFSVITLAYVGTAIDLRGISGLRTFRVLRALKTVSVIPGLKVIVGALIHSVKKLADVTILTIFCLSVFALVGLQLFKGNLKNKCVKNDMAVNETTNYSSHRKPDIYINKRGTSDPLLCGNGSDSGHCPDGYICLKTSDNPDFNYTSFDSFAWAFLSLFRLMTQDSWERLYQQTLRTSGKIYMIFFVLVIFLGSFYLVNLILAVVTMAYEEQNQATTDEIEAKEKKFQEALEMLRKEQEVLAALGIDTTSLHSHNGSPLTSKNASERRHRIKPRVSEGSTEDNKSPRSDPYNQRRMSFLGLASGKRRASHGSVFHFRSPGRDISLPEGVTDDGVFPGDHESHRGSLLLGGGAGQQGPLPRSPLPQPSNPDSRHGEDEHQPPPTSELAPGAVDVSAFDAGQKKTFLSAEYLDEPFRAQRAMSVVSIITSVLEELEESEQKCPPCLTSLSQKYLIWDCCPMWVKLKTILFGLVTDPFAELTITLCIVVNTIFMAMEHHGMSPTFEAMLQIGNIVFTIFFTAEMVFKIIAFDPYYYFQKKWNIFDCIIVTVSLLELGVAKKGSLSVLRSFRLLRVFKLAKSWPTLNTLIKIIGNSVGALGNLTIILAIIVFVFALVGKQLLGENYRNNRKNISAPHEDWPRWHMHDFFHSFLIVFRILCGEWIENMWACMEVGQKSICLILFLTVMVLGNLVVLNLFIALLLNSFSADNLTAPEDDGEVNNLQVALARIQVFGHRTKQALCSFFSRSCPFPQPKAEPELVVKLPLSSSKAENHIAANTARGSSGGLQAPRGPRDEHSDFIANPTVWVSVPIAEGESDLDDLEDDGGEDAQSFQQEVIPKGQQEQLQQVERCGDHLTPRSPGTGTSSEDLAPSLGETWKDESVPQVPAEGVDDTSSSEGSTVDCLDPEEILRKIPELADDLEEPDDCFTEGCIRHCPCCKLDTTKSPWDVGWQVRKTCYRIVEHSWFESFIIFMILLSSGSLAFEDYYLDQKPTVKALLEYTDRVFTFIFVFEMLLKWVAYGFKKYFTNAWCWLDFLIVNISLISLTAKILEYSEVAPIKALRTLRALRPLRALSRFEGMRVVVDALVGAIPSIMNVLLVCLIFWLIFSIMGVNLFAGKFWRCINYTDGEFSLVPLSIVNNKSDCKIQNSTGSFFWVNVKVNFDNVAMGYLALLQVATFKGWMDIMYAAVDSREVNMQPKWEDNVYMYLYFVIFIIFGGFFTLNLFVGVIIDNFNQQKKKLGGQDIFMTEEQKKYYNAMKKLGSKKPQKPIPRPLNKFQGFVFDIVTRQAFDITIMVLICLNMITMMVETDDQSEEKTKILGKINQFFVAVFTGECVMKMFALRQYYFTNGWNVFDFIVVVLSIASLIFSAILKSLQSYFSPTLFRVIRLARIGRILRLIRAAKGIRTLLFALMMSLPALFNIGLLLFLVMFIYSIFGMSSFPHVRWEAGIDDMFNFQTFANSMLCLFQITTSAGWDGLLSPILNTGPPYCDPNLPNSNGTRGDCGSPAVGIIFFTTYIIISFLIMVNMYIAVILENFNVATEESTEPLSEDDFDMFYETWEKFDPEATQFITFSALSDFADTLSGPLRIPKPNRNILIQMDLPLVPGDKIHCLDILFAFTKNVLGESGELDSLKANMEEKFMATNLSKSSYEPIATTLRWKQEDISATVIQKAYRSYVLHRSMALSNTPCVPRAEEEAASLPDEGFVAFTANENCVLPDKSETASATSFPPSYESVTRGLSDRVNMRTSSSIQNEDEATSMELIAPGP

## CC[C@H](C)[C@@H]1NC(=O)[C@H](CCCNC(=N)N)NC(=O)[C@@H]2CSSC[C@@H]3NC(=O)CNC(=O)CNC(=O)[C@H](CC(C)C)NC(=O)[C@H](Cc4ccccc4)NC(=O)[C@H](Cc4c[nH]c5ccccc45)NC(=O)[C@H](CCCNC(=N)N)NC(=O)[C@@H](NC(=O)[C@@H](N)CC(=O)O)CSSC[C@H](NC(=O)[C@H](CSSC[C@@H](C(=O)N[C@@H](C)C(=O)N[C@@H](Cc4c[nH]c5ccccc45)C(=O)N[C@@H](CC(=O)O)C(=O)NCC(=O)N[C@H](C(=O)N[C@@H](Cc4ccccc4)C(N)=O)[C@@H](C)O)NC(=O)[C@H](Cc4ccc(O)cc4)NC(=O)[C@H](CCCCN)NC(=O)[C@H]([C@@H](C)CC)NC(=O)[C@H](Cc4ccc(O)cc4)NC(=O)CNC(=O)[C@H](CC(=O)O)NC1=O)NC(=O)[C@H](CC(=O)O)NC(=O)[C@H](CO)NC(=O)[C@H](CC(=O)O)NC(=O)[C@H](CCCCN)NC(=O)[C@H](CO)NC3=O)C(=O)N[C@@H](CCCCN)C(=O)N[C@@H](Cc1c[nH]cn1)C(=O)N[C@@H](CC(C)C)C(=O)N[C@@H](C)C(=O)N2 [Eo1a] (H-DCRWFLGGCSKDSDCCKHLACRIDGYIKYCAWDGTF-NH2; disulfide 2-16, 9-21, 15-30 (inferred); N-terminus assumed)
NaV1.5; 5 min, peak from I-V protocol at any voltage, normalised to buffer control, HEK293 hNaV1.5/β1, mean ± SEM, n = 4–6 cells
  peak current I/I0: 0.41 ± 0.05
NaV1.5; NaV1.5, 5 min, control −30.3 ± 4.0 mV, mean ± SEM, n = 4–6
  V1/2 activation: −27.1 ± 2.2 mV
NaV1.5; NaV1.5, 5 min, control −70.2 ± 0.9 mV, mean ± SEM, n = 4–6
  V1/2 inactivation (steady-state fast inactivation): −75.5 ± 1.0
NaV1.5; NaV1.5, test pulse −20 mV
  effect on inactivation kinetics: minimal effect
NaV1.6; 5 min, control −22.7 ± 1.0 mV, *p < 0.05, mean ± SEM, n = 4–6
  V1/2 activation: −35.0 mV
NaV1.6; 5 min, control −56.3 ± 1.1 mV, mean ± SEM, n = 4–6
  V1/2 inactivation (steady-state fast inactivation): −56.2 ± 1.0
NaV1.6; test pulse −20 mV
  effect on fast inactivation: delayed fast-inactivation
NaV1.7; 5 min, peak from I-V protocol at any voltage, normalised to buffer control, HEK293 hNaV1.7/β1, mean ± SEM, n = 4–6 cells
  peak current I/I0: 0.63 ± 0.10
NaV1.7; NaV1.7, 5 min, control −26.1 ± 1.5 mV, mean ± SEM, n = 4–6
  V1/2 activation: −32.9 ± 2.9 mV
NaV1.7; NaV1.7, 5 min, control −65.5 ± 1.4 mV, mean ± SEM, n = 4–6
  V1/2 inactivation (steady-state fast inactivation): −69.1 ± 4.3
NaV1.7; NaV1.7, test pulse −20 mV
  effect on fast inactivation: delayed fast-inactivation
NaV1.8; 5 min, CHO cells, hNaV1.8/β3, 10-ms pulse to +10 mV after 500-ms step, hyperpolarising shift, mean ± SEM, n = 4 cells
  ΔV50 voltage-dependence of steady-state fast inactivation: –15.5 ± 1.8 mV
NaV1.8; 5 min, CHO cells, hNaV1.8/β3, Boltzmann fit, hyperpolarising shift vs before addition, mean ± SEM, n = 4 cells
  ΔV50 voltage-dependence of activation: –20.5 ± 1.2 mV
NaV1.8; 5 min, peak from I-V protocol at any voltage, normalised to buffer control, CHO hNaV1.8/β3, mean ± SEM, n = 4–6 cells
  peak current I/I0: 1.8 ± 0.08
NaV1.8; NaV1.8, n = 4 cells
  window current: comparatively unchanged
NaV1.8; NaV1.8, potentials between −5 mV and +45 mV, n = 4 cells, two-way ANOVA
  activation kinetics (time to peak): without significantly altering
NaV1.8; NaV1.8, single exponential fit, −5 mV to +45 mV, n = 4 cells, two-way ANOVA
  fast inactivation kinetics (time constant): without significantly altering
NaV1.8; NaV1.8, 5 min, control +7.0 ± 1.8 mV, *p < 0.05, mean ± SEM, n = 4–6
  V1/2 activation: −13.5 mV
NaV1.8; NaV1.8, 5 min, control −27.4 ± 2.7 mV, *p < 0.05, mean ± SEM, n = 4–6
  V1/2 inactivation (steady-state fast inactivation): −42.9 ± 2.1*
DRG neurons; Eo1a 10 μM + TTX 1 μM, dissociated DRG neurons of C57BL/6J mice, Fluo-4, mean ± SEM of 2–3 wells
  neurons activated in the presence of TTX: 30 ± 2%
DRG neurons; Eo1a 10 μM, dissociated DRG neurons of C57BL/6J mice, Fluo-4, responder = at least 1.5-fold fluorescence increase, without TTX, mean ± SEM of 2–3 wells
  neurons with Ca2+ influx (activated): 44 ± 3%
DRG neurons; Eo1a 10 μM, n = 473 alone, n = 317 with TTX, distribution did not change with TTX
  size of activated neurons: smaller size
